Data from ChEMBL document CHEMBL5608208, “Design, synthesis of griseofamine A derivatives and development of potent antibacterial agents against MRSA” (Eur J Med Chem, 2024).
≈ marks a conversion by molar mass, not a printed value. Calls of active or inactive are those of the source. The calls are words filed in the database; no cut-off is given here.

How the values were obtained:
[1] = Hemolytic activity in rabbit RBC assessed as hemolysis rate at 23.5 ug/ml incubated for 1 hr by microplate reader assay; assay type: toxicity, cell-based, Oryctolagus cuniculus, Erythrocyte; conditions: rabbit red blood cells (erythrocytes), at 23.5 µg/mL, read-out: Activity
Staphylococcus aureus [2] = assay: Antibacterial activity against methicillin resistant Staphylococcus aureus ATCC 43300 infected in ICR mouse systemic infection model assessed as reduction in bacterial burden in kidney at 2.5 mg/kg, ip pretreated with bacteria for 30 mins followed by compound addition and measured for 7 days; assay type: functional, organism-based; conditions: time 7.0 day
[3] = Acute toxicity in ICR mouse assessed as change in food intake at 2 g/kg, po measured after 7 days; assay type: organism-based; conditions: in vivo, 2000 mg/kg, 168 h, time 7 day
Staphylococcus aureus [4] = assay: Antibacterial activity against methicillin resistant Staphylococcus aureus ATCC 33592 assessed as leakage of cellular components at MIC incubated for 1 to 6 hrs by SEM analysis; assay type: functional, organism-based; conditions: time 1-6 hrs
[5] = MRT(0 to infinity) in ICR mouse at 5 mg/kg, po; assay type: ADME, organism-based; conditions: in vivo
[6] = AUC(0 to t) in ICR mouse at 5 mg/kg, po; assay type: ADME, organism-based; conditions: in vivo
Staphylococcus aureus [7] = assay: Potency index, ratio of griseofamine A MIC to test compound MIC for antibacterial activity against methicillin resistant Staphylococcus aureus ATCC 33592; assay type: functional
[8] = Half-life in ICR mouse at 1 mg/kg, iv; assay type: ADME, organism-based; conditions: in vivo
Staphylococcus aureus [9] = assay: Drug resistance development in methicillin resistant Staphylococcus aureus […] assessed as increase in MIC value measured after 7 passages by broth microdilution method; assay type: functional, organism-based
[10] = Acute toxicity in ICR mouse at 2 g/kg, po measured after 7 days; assay type: organism-based; conditions: in vivo, 2000 mg/kg, time 7 day
Staphylococcus aureus [11] = assay: Drug resistance development in Staphylococcus aureus ATCC 29213 assessed as increase in MIC value measured after 8 passages by broth microdilution method; assay type: functional
[12] = Cmax in ICR mouse at 5 mg/kg, po; assay type: ADME, organism-based; conditions: in vivo
Staphylococcus aureus [13] = assay: Antibacterial activity against methicillin resistant Staphylococcus aureus ATCC 43300 infected in ICR mouse systemic infection model at 2.5 mg/kg, ip pretreated with bacteria for 30 mins followed by compound addition and measured for 7 days; assay type: functional; conditions: time 7 day
[14] = Volume of distribution in ICR mouse at 1 mg/kg, iv; assay type: ADME, organism-based; conditions: in vivo
Staphylococcus aureus [15] = assay: Antibacterial activity against methicillin resistant Staphylococcus aureus ATCC 43300 infected in ICR mouse systemic infection model assessed as reduction in bacterial burden in spleen at 2.5 mg/kg, ip pretreated with bacteria for 30 mins followed by compound addition and measured for 7 days; assay type: functional, organism-based; conditions: time 7.0 day
Staphylococcus aureus [16] = assay: Bactericidal activity against methicillin resistant Staphylococcus aureus ATCC 33592 at 2.5 times MIC measured after 2 to 24 hrs by time-kill kinetics assay; assay type: functional; conditions: time 2-24 hrs
Staphylococcus aureus [17] = assay: Bactericidal activity against methicillin resistant Staphylococcus aureus ATCC 43300 incubated for 18 to 24 hrs; assay type: functional; conditions: time 18-24 hrs
Staphylococcus aureus [18] = assay: Antibacterial activity against methicillin resistant Staphylococcus aureus ATCC 43300 infected in ICR mouse systemic infection model at 1.25 to 5 mg/kg, ip pretreated with bacteria for 30 mins followed by compound addition and measured for 7 days; assay type: functional; conditions: dose 1.25-5 mg/kg, time 7 day
[19] = test system: Staphylococcus epidermidis; assay: Drug resistance development in Staphylococcus epidermidis ATCC 12228 assessed as increase in MIC value measured after 8 passages by broth microdilution method; assay type: functional
[20] = Tmax in ICR mouse at 1 mg/kg, iv; assay type: ADME, organism-based; conditions: in vivo
[21] = Clearance in ICR mouse at 1 mg/kg, iv; assay type: ADME, organism-based; conditions: in vivo
[22] = Acute toxicity in ICR mouse assessed as change in body weight at 2 g/kg, po measured after 7 days; assay type: organism-based; conditions: in vivo, 2000 mg/kg, 168 h, time 7 day
Bacillus subtilis = assay: Antibacterial activity against Bacillus subtilis CMCC 63501 incubated for 18 hrs by serial two-fold dilution method; assay type: functional
Staphylococcus aureus [23] = assay: Antibacterial activity against methicillin resistant Staphylococcus aureus ATCC 33592 incubated for 18 hrs by serial two-fold dilution method; assay type: functional
Staphylococcus aureus [24] = assay: Inhibition of biofilm formation in methicillin resistant Staphylococcus aureus ATCC 33592 assessed as decrease in biofilm survival rate incubated for 48 hrs by crystal violet staining based optical microscopic analysis; assay type: functional, organism-based
Staphylococcus aureus [25] = assay: Drug resistance development in methicillin resistant Staphylococcus aureus ATCC 43300 assessed as increase in MIC value measured after 7 passages by broth microdilution method; assay type: functional, organism-based
Staphylococcus aureus [26] = assay: Antibacterial activity against methicillin resistant Staphylococcus aureus ATCC 43300 infected in ICR mouse systemic infection model assessed as reduction in bacterial burden in liver at 2.5 mg/kg, ip pretreated with bacteria for 30 mins followed by compound addition and measured for 7 days; assay type: functional, organism-based; conditions: time 7.0 day
[27] = MRT(0 to t) in ICR mouse at 1 mg/kg, iv; assay type: ADME, organism-based; conditions: in vivo
Staphylococcus aureus [28] = assay: Drug resistance development in Staphylococcus aureus ATCC 29213 assessed as increase in MIC value measured after 7 passages by broth microdilution method; assay type: functional, organism-based
Staphylococcus aureus [29] = assay: Antibacterial activity against methicillin resistant Staphylococcus aureus ATCC 43300 incubated for 18 hrs by serial two-fold dilution method; assay type: functional
Staphylococcus aureus [30] = assay: Potency index, ratio of vancomycin MIC to test compound MIC for antibacterial activity against methicillin resistant Staphylococcus aureus ATCC 33592; assay type: functional
[31] = MRT(0 to infinity) in ICR mouse at 1 mg/kg, iv; assay type: ADME, organism-based; conditions: in vivo
[32] = Tmax in ICR mouse at 5 mg/kg, po; assay type: ADME, organism-based; conditions: in vivo
Staphylococcus aureus [33] = assay: Antibacterial activity against methicillin resistant Staphylococcus aureus ATCC 43300 infected in ICR mouse systemic infection model assessed as reduction in bacterial burden in lung at 2.5 mg/kg, ip pretreated with bacteria for 30 mins followed by compound addition and measured for 7 days; assay type: functional, organism-based; conditions: time 7.0 day
Enterococcus faecium = assay: Antibacterial activity against Enterococcus faecium ATCC 700221 incubated for 18 hrs by serial two-fold dilution method; assay type: functional
Staphylococcus aureus [34] = assay: Antibacterial activity against Staphylococcus aureus ATCC 29213 incubated for 18 hrs by serial two-fold dilution method; assay type: functional
Staphylococcus aureus [35] = assay: Potency index, ratio of vancomycin MIC to test compound MIC for antibacterial activity against methicillin resistant Staphylococcus aureus ATCC 43300; assay type: functional
[36] = Clearance in ICR mouse at 5 mg/kg, po; assay type: ADME, organism-based; conditions: in vivo
[37] = MRT(0 to t) in ICR mouse at 5 mg/kg, po; assay type: ADME, organism-based; conditions: in vivo
Staphylococcus aureus [38] = assay: Antibacterial activity against methicillin resistant Staphylococcus aureus ATCC 43300 infected in ICR mouse systemic infection model assessed as reduction in bacterial burden in heart at 2.5 mg/kg, ip pretreated with bacteria for 30 mins followed by compound addition and measured for 7 days; assay type: functional, organism-based; conditions: time 7.0 day
Staphylococcus aureus [39] = assay: Antibacterial activity against methicillin resistant Staphylococcus aureus ATCC 33592 assessed as increase in cell aggregation at MIC incubated for 1 to 6 hrs by SEM analysis; assay type: functional, organism-based; conditions: time 1-6 hrs
[40] = test system: Staphylococcus epidermidis; assay: Antibacterial activity against Staphylococcus epidermidis ATCC 12228 incubated for 18 hrs by serial two-fold dilution method; assay type: functional
[41] = test system: Staphylococcus epidermidis; assay: Drug resistance development in Staphylococcus epidermidis ATCC 12228 assessed as increase in MIC value measured after 7 passages by broth microdilution method; assay type: functional, organism-based

## C/C(O)=C1\C(=O)[C@@H]2Cc3c([nH]c4ccccc34)[C@@H](c3ccc(-c4cc(F)cc(F)c4)cc3)N2C1=O
[1]
  hemolysis at 1 h, 23.5 ug/ml: < 5%
Staphylococcus aureus [2]
  Activity: Active
[3]
  Activity: Non-Toxic
Staphylococcus aureus [4]
  Activity: Active
[5]
  MRT inf: 12.7 h
[6]
  AUC(0-t): 2450 ng·h/mL
Staphylococcus aureus [7]
  Ratio: 128
[8]
  half-life: 7.59 h
Staphylococcus aureus [9]
  Activity: inactive
[10]
  LD50 at 168 h: > 2000 mg/kg
Staphylococcus aureus [11]
  MIC: 2 µg/mL
[12]
  Cmax: 233 ng/mL
Staphylococcus aureus [13]
  Activity: 75%
[14]
  Vd: 2.55 L/kg
Staphylococcus aureus [15]
  Activity: Active
Staphylococcus aureus [16]
  Activity: 100%
Staphylococcus aureus [17]
  MBC: 1 µg/mL (≈ 2.13 µM)
Staphylococcus aureus [18]
  Activity: >50%
[19]
  MIC: 2 µg/mL
[20]
  Tmax: 1.8 min
[21]
  clearance: 3.88 mL/min/kg
[22]
  Activity: Non-Toxic
Bacillus subtilis
  MIC: 0.14 µg/mL (≈ 0.298 µM)
Staphylococcus aureus [23]
  MIC: 0.063 µg/mL (≈ 0.134 µM)
Staphylococcus aureus [24]
  inhibition: Dose-Dependent Effect
Staphylococcus aureus [25]
  Activity: inactive
Staphylococcus aureus [26]
  Activity: Active
[27]
  MRT last: 10.4 h
Staphylococcus aureus [28]
  Activity: inactive
Staphylococcus aureus [29]
  MIC: 0.063 µg/mL (≈ 0.134 µM)
Staphylococcus aureus [30]
  Ratio: 8
[31]
  MRT inf: 11.1 h
[32]
  Tmax: 3.33 h
Staphylococcus aureus [33]
  Activity: Active
Enterococcus faecium
  MIC: 0.45 µg/mL (≈ 0.956 µM)
Staphylococcus aureus [34]
  MIC: 0.031 µg/mL (≈ 0.0659 µM)
Staphylococcus aureus [35]
  Ratio: 8
[36]
  CL/F: 32.5 mL/min/kg
[37]
  MRT last: 10.6 h
Staphylococcus aureus [38]
  Activity: Active
Staphylococcus aureus [39]
  Activity: Active
[40]
  MIC: 0.125 µg/mL (≈ 0.266 µM)
[41]
  Activity: inactive
